Experimental data: ChEMBL document CHEMBL6127121, “Development of N-(4-(1H-Imidazol-1-yl)phenyl)-4-chlorobenzenesulfonamide, a Novel Potent Inhibitor of β-Catenin with Enhanced Antitumor Activity and Metabolic Stability” (J Med Chem, 2024)
Active and inactive are the calls of the source. The rule behind the calls is not given here.

Assays:
[1] = Metabolic stability in human liver microsomes assessed as intrinsic clearance per mg protein preincubated for 10 mins followed by NADP, glucose-6-phosphate and glucose-6-phosphate dehydrogenase addition and measured upto 60 mins by LC-MS/MS analysis; type: ADME, Microsome; details: time < 70 min, read-out: CLH
[2] = Metabolic stability in human liver microsomes assessed as half life preincubated for 10 mins followed by NADP, glucose-6-phosphate and glucose-6-phosphate dehydrogenase addition and measured upto 60 mins by LC-MS/MS analysis; type: ADME, Microsome; details: time < 70 min
[3] = Metabolic stability in mouse liver microsomes assessed as intrinsic clearance per mg protein preincubated for 10 mins followed by NADP, glucose-6-phosphate and glucose-6-phosphate dehydrogenase addition and measured upto 60 mins by LC-MS/MS analysis; type: ADME, Microsome; details: time < 70 min, read-out: CLH
[4] = Metabolic stability in mouse liver microsomes assessed as half life preincubated for 10 mins followed by NADP, glucose-6-phosphate and glucose-6-phosphate dehydrogenase addition and measured upto 60 mins by LC-MS/MS analysis; type: ADME, Microsome; details: time < 70 min
SW480 [5] = assay: Inhibition of Wnt/beta-catenin signaling in human SW480 cells assessed as residual activity at IC50 concentration incubated for 12 hrs by Topflash/Fopflash Dual-Glo luciferase reporter assay; type: cell-based; details: dose 30.0 µM
HCT-116 [6] = assay: Inhibition of Wnt/beta-catenin signaling in human HCT-116 cells assessed as residual activity at IC50 concentration incubated for 12 hrs by Topflash/Fopflash Dual-Glo luciferase reporter assay; type: cell-based; details: dose 30.0 µM
SW480 [7] = assay: Inhibition of cell growth in human SW480 cells incubated for 48 to 72 hrs by XTT method; type: functional, cell-based
HCT-116 [8] = assay: Inhibition of cell growth in human HCT-116 cells incubated for 48 to 72 hrs by XTT method; type: functional, cell-based
[9] = target: T1, Catenin beta-1 (Homo sapiens) (UniProt P35222); assay: Inhibition of beta-catenin in human HCT-116 cells transfected with luciferase based vectors at 1 to 10 nM incubated for 48 hrs in presence of LiCl; type: cell-based; details: dose 1-10 nM
T1 sequence (whole entry): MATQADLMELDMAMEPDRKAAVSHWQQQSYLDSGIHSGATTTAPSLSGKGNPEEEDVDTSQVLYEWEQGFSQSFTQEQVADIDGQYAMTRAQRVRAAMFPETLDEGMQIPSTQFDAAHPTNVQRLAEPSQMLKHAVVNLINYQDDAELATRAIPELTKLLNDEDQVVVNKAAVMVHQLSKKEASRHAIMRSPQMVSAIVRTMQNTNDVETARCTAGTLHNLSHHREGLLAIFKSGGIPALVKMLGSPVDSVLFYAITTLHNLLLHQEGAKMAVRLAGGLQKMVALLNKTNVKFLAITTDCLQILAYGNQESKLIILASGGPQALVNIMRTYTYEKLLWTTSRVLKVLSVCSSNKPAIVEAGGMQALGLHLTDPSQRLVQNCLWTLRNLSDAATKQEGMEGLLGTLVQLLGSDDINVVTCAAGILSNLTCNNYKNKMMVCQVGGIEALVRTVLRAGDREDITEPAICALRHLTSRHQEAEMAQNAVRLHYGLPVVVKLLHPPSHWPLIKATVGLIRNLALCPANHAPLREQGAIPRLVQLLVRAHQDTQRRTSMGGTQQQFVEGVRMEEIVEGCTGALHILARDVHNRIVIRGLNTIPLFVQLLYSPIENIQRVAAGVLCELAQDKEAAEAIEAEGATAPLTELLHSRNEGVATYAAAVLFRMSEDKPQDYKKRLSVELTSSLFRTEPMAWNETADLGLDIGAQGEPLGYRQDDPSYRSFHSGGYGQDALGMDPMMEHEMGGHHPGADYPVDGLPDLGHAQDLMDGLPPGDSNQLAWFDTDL

[10] = target: T1, Catenin beta-1 (Homo sapiens); assay: Inhibition of beta-catenin in human HCT-116 cells transfected with luciferase based vectors incubated for 24 hrs in presence of LiCl; type: cell-based; details: dose 50-100 nM
HCT-116 [11] = assay: Downregulation of beta-catenin protein level in human HCT-116 cells incubated for 24 hrs in presence of 50 mM LiCl by Western blotting analysis; type: functional, cell-based; details: dose 10-100 µM
HCT-116 [12] = assay: Downregulation of c-Myc protein level in human HCT-116 cells incubated for 24 hrs in presence of 50 mM LiCl by Western blotting analysis; type: functional, cell-based; details: dose 10-100 µM
HCT-116 [13] = assay: Downregulation of c-Myc mRNA level in human HCT-116 cells incubated for 24 hrs in presence of 50 mM LiCl by qPCR analysis; type: functional, cell-based; details: dose 10-100 µM
[14] = Downregulation of c-Myc mRNA level in human HCT-116 cells at 10 uM incubated for 24 hrs in presence of 50 mM LiCl by qPCR analysis; type: functional
HCT-116 [15] = assay: Downregulation of Fgf20 mRNA level in human HCT-116 cells at 10 uM incubated for 24 hrs by qPCR analysis; type: functional, cell-based
HCT-116 [16] = assay: Downregulation of Sall4 mRNA level in human HCT-116 cells at 10 uM incubated for 24 hrs by qPCR analysis; type: functional, cell-based
HCT-116 [17] = assay: Antitumor activity against human HCT-116 cells xenografted in BALB/c nu/nu mouse assessed as reduction in tumor volume at 25 mg/kg, ip administered every 2 days for 30 day; type: functional, organism-based
HCT-116 [18] = assay: Antitumor activity against human HCT-116 cells xenografted in BALB/c nu/nu mouse assessed as reduction in tumor weight at 25 mg/kg, ip administered every 2 days for 30 day; type: functional, organism-based
HCT-116 [19] = assay: Antitumor activity against human HCT-116 cells xenografted in BALB/c nu/nu mouse assessed as reduction in nuclear Ki67 expression at 25 mg/kg, ip administered every 2 days for 30 day by […] based assay; type: functional, organism-based
MDA-MB-231 [20] = assay: Antiproliferative activity against human MDA-MB-231 cells at 1.48 to 40 uM incubated for 72 hrs by IncuCyte live-cell imaging analysis; type: functional, cell-based; details: dose 1.48-40 µM
MDA-MB-231 [21] = assay: Antiproliferative activity against human MDA-MB-231 cells at 40 uM incubated for 24 hrs by IncuCyte live-cell imaging analysis; type: functional, cell-based
MDA-MB-231 [22] = assay: Antiproliferative activity against human MDA-MB-231 cells at 13.33 uM incubated for 72 hrs by IncuCyte live-cell imaging analysis; type: functional, cell-based

Row | SMILES | Activity (SW480 [5]) | Activity (HCT-116 [6]) | EC50 (SW480 [7]) | EC50 (HCT-116 [8]) | further results
1 | CCOc1ccc2ccc(=O)oc2c1 |  |  |  |  | microsomal CLint [1]: 94 µL/min/mg; half-life [2]: 14.8 min; microsomal CLint [3]: 712 µL/min/mg; half-life [4]: 1.9 min
2 | O=S(=O)(Nc1ccc(-c2ccccc2)cc1)c1ccc(C(F)(F)F)cc1 | 37.3% | 22.4% | 8.7 µM | 12 µM | 
3 | O=S(=O)(Nc1cccc(-c2ccccn2)c1)c1ccc(-n2cccc2)cc1 | 6.3% | 6.4% | 46 µM | 66 µM | 
4 | O=S(=O)(Nc1cccc(-c2ccco2)c1)c1ccc(C(F)(F)F)cc1 | 5.3% | 2.7% | > 50 µM | > 50 µM | 
5 | O=S(=O)(Nc1ccc(-c2ccsc2)cc1)c1ccc(Br)cc1 | 3.7% | 8.6% | 27 µM | 32 µM | 
6 | O=S(=O)(Nc1ccc(-n2ccnc2)cc1)c1ccc(C(F)(F)F)cc1 | 6% | 4.4% | 14 µM | 16 µM | 
7 | O=S(=O)(Nc1cccc(-n2ccnc2)c1)c1ccc(C(F)(F)F)cc1 | 9.1% | 5.1% | 28 µM | 50 µM | 
8 | O=S(=O)(Nc1ccc(-n2ccnc2)cc1)c1ccc(Cl)cc1 | 3.7% | 2.5% | 2 µM | 0.12 µM | inhibition [9]: Active; inhibition [10]: Dose-Dependent Effect; Activity (HCT-116 [11]): Dose-Dependent Effect; Activity (HCT-116 [12]): Dose-Dependent Effect; Activity (HCT-116 [13]): Dose-Dependent Effect; Activity [14]: 50%; Activity (HCT-116 [15]): Active; Activity (HCT-116 [16]): Active; Activity (HCT-116 [17]): Active; Activity (HCT-116 [18]): Active; Activity (HCT-116 [19]): Active; microsomal CLint [1]: < 3 µL/min/mg; half-life [2]: > 500 min; microsomal CLint [3]: < 3 µL/min/mg; half-life [4]: > 500 min
9 | O=S(=O)(Nc1cccc(-c2ccsc2)c1)c1ccc(Br)cc1 | 2.7% | 0.8% | 25 µM | 19 µM | Activity (MDA-MB-231 [20]): Active; Activity (MDA-MB-231 [21]): Active
10 | O=S(=O)(Nc1cccc(-c2ccccn2)c1)c1ccc(I)cc1 | 2.6% | 8.5% | 25 µM | 39 µM | 
11 | O=S(=O)(Nc1ccc(-c2cccs2)cc1)c1ccc(C(F)(F)F)cc1 | 26.6% | 33.1% | 45 µM | 39 µM | 
12 | O=S(=O)(Nc1cccc(-n2ccnc2)c1)c1ccc(Cl)cc1 | 2.3% | 8.4% | > 50 µM | > 50 µM | 
13 | O=S(=O)(Nc1ccc(-c2ccco2)cc1)c1ccc(C(F)(F)F)cc1 | 6.6% | 2.4% | > 50 µM | > 50 µM | 
14 | O=S(=O)(Nc1ccc(-c2ccccn2)cc1)c1ccc(Br)cc1 | 8.8% | 4.3% | 34 µM | 24 µM | 
15 | O=S(=O)(Nc1ccc(-c2ccoc2)cc1)c1ccc(C(F)(F)F)cc1 | 4.4% | 9.7% | > 50 µM | > 55 µM | 
16 | O=S(=O)(Nc1ccc(-c2ccsc2)cc1)c1ccc(C(F)(F)F)cc1 | 5.6% | 2.4% | 17 µM | 12 µM | 
17 | O=C1[C@H](Cc2ccc(O)cc2)N2C(=O)CCN(C(=O)NCc3ccccc3)[C@H]2CN1Cc1cccc2ccccc12 |  |  |  |  | Activity (MDA-MB-231 [21]): Active
18 | O=c1[nH]cc(F)c(=O)[nH]1 [FLUOROURACIL] |  |  | 13.7 µM | 23.1 µM | 
19 | O=S(=O)(Nc1ccc(-c2ccoc2)cc1)c1ccc(Br)cc1 | 28.4% | 32.1% | 35 µM | 62 µM | 
20 | COC(=O)c1ccc(NS(=O)(=O)c2ccc(Br)cc2)cc1 | 19.4% | 2.5% |  |  | 
21 | O=S(=O)(Nc1cccc(-c2ccccc2)c1)c1ccc(Br)cc1 | 22.7% | 33.5% | 12 µM | 9 µM | Activity (MDA-MB-231 [20]): Active; Activity (MDA-MB-231 [22]): Active
22 | CCOC(=O)c1ccc(NS(=O)(=O)c2ccc(Br)cc2)cc1 | 21.6% | 18.8% | > 50 µM | > 50 µM | 
23 | O=S(=O)(Nc1ccc(-n2ccnc2)cc1)c1ccc(Br)cc1 | 7.2% | 6.4% | > 50 µM | > 50 µM | 
24 | O=S(=O)(Nc1cccc(-n2ccnc2)c1)c1ccc(Br)cc1 | 3.6% | 3.1% | > 50 µM | > 50 µM | 
25 | O=S(=O)(Nc1ccc(-c2ccccc2)cc1)c1ccc(Br)cc1 | 8.1% | 3.2% | 31 µM | 27 µM | 
26 | O=S(=O)(Nc1cccc(-c2ccoc2)c1)c1ccc(C(F)(F)F)cc1 | 7.4% | 6.7% | > 50 µM | > 50 µM | 
27 | CC(C)NCC(O)COc1cccc2ccccc12 (centres undefined) [PROPRANOLOL] |  |  |  |  | half-life [2]: 35.2 min
28 | O=S(=O)(Nc1cccc(-c2ccccn2)c1)c1ccc(C(F)(F)F)cc1 | 3.4% | 6.6% | > 50 µM | > 50 µM | 
29 | O=S(=O)(Nc1cccc(-c2ccoc2)c1)c1ccc(Br)cc1 | 1.6% | 5.7% | 38 µM | 35 µM | 
30 | O=S(=O)(Nc1cccc(-c2ccccc2)c1)c1ccc(C(F)(F)F)cc1 | 28.3% | 36.4% | 43 µM | 48 µM | 
